Reference: ChEMBL document CHEMBL1201862, “PubChem BioAssay data set” (2004)
“And” between values parts separate entries of the source, which are not always exact repeats. Equal entries are not always repeated.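 How tested: cells in 96-well plates exposed to compound for 48 hours at five concentrations. GI50: concentration for 50% inhibition of growth.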 The source made the active and inactive calls. Cut-off read from the data, not from the text of the source: active = GI50 up to about 1.1 µM and inactive = higher.

Tests used:
Experiment in all cases: growth of human tumour cells (NCI), 48 h
A498 = system: A498
CCRF-CEM = system: CCRF-CEM
EKVX = system: EKVX
HCT-15 = system: HCT-15
HOP-92 = system: HOP-92
HT-29 = system: HT-29
IGROV-1 = system: IGROV-1
LOX IMVI = system: LOX IMVI
NCI-H522 = system: NCI-H522
NCI/ADR-RES = system: NCI/ADR-RES
OVCAR-8 = system: OVCAR-8
RPMI-8226 = system: RPMI-8226
RXF 393 = system: RXF 393
SF-268 = system: SF-268
SK-OV-3 = system: SK-OV-3
SW-620 = system: SW-620
NCI-H23 = system: NCI-H23
ACHN = system: ACHN
M14 = system: M14
MDA-MB-435 = system: MDA-MB-435

Compound	GI50 (A498)	GI50 (CCRF-CEM)	GI50 (EKVX)	GI50 (HCT-15) [µM]	GI50 (HOP-92)	GI50 (HT-29)	GI50 (IGROV-1)	GI50 (LOX IMVI)	GI50 (NCI-H522)	GI50 (NCI/ADR-RES)	GI50 (OVCAR-8)	GI50 (RPMI-8226)	GI50 (RXF 393)	GI50 (SF-268)	GI50 (SK-OV-3)	GI50 (SW-620)	GI50 (NCI-H23)	GI50 (ACHN)	GI50 (M14)	GI50 (MDA-MB-435)
CC(=O)c1ccc2c(c1)c1c(C)c3c[n+](C)ccc3c(C)c1n2C	6.41 µM (inactive)	3.76 µM (inactive)	33.3 µM (inactive)	17.6	11.8 µM (inactive)	13.2 µM (inactive)	16.5 µM (inactive)	4.63 µM (inactive)	13.7 µM (inactive)	8.55 µM (inactive)	1.45 µM (inactive)	3.84 µM (inactive)	11.4 µM (inactive)	0.469 µM (active)	16.1 µM (inactive)	1.03 µM (active)	–	–	–	–
CN(C)C(=O)/C=C/c1c[nH]c(=O)[nH]c1=O	> 500 µM (inactive)	> 500 µM (inactive)	> 281 µM (inactive)	> 500	> 500 µM (inactive)	> 500 µM (inactive)	> 500 µM (inactive)	> 500 µM (inactive)	> 500 µM (inactive)	> 500 µM (inactive)	> 500 µM (inactive)	> 316 µM (inactive)	> 500 µM (inactive)	> 500 µM (inactive)	> 254 µM (inactive)	> 500 µM (inactive)	> 500 µM (inactive)	–	–	–
Nc1ncnc2c1ncn2C1OC(CO)CC1O (stereo unspecified)	–	34.3 µM (inactive)	40.6 µM (inactive)	17.6	40.4 µM (inactive)	–	> 100 µM (inactive)	21.4 µM (inactive)	18 µM (inactive)	20.3 µM (inactive)	16.6 µM (inactive)	–	> 100 µM (inactive)	53.7 µM (inactive)	51.9 µM (inactive)	35.1 µM (inactive)	90.8 µM (inactive)	> 100 µM (inactive)	38.2 µM (inactive)	> 10 µM (inactive)
C=CCCCC1CCCNC1=S (stereo unspecified)	> 100 µM (inactive)	–	> 100 µM (inactive)	> 100	> 100 µM (inactive)	> 100 µM (inactive)	> 100 µM (inactive)	–	> 100 µM (inactive)	–	> 100 µM (inactive)	> 100 µM (inactive)	> 100 µM (inactive)	> 100 µM (inactive)	> 100 µM (inactive)	> 100 µM (inactive)	> 100 µM (inactive)	> 100 µM (inactive)	> 100 µM (inactive)	> 100 µM (inactive)
CCC(C)NC1=NCC(C)S1 (stereo unspecified)	> 100 µM (inactive)	> 100 µM (inactive)	> 100 µM (inactive)	> 100	> 100 µM (inactive)	> 100 µM (inactive)	> 100 µM (inactive)	> 100 µM (inactive)	> 100 µM (inactive)	–	–	> 100 µM (inactive)	28.3 µM (inactive)	> 100 µM (inactive)	> 100 µM (inactive)	> 100 µM (inactive)	> 100 µM (inactive)	> 100 µM (inactive)	> 100 µM (inactive)	> 100 µM (inactive)
COc1ccc(C2=N/C(=C\c3ccccc3)C(=O)O2)cc1	–	31 µM (inactive)	> 100 µM (inactive)	52.1	> 100 µM (inactive)	> 100 µM (inactive)	> 100 µM (inactive)	–	–	16.7 µM (inactive)	30.8 µM (inactive)	36.6 µM (inactive)	> 100 µM (inactive)	> 100 µM (inactive)	> 100 µM (inactive)	> 100 µM (inactive)	–	> 100 µM (inactive)	> 100 µM (inactive)	> 100 µM (inactive)
CCOC1=NC(C(F)(F)F)(C(F)(F)F)N=C(N2CCOCC2)O1	–	> 100 µM (inactive)	> 100 µM (inactive)	> 100	> 100 µM (inactive)	> 100 µM (inactive)	> 100 µM (inactive)	> 100 µM (inactive)	> 100 µM (inactive)	> 100 µM (inactive)	> 100 µM (inactive)	> 100 µM (inactive)	80.7 µM (inactive)	> 100 µM (inactive)	> 100 µM (inactive)	> 100 µM (inactive)	> 100 µM (inactive)	> 100 µM (inactive)	> 100 µM (inactive)	> 100 µM (inactive)
CCOC(=O)c1sc2nc(SC)nc3c2c1NC(=O)CN3c1ccc(F)cc1	47.6 µM (inactive)	30.1 µM (inactive)	47.4 µM (inactive)	–	31.8 µM (inactive)	44.6 µM (inactive)	> 100 µM (inactive)	38.3 µM (inactive)	71.9 µM (inactive)	–	22.1 µM (inactive)	65.9 µM (inactive)	18.8 µM (inactive)	20 µM (inactive)	25 µM (inactive)	38.5 µM (inactive)	50.6 µM (inactive)	21.6 µM (inactive)	37.9 µM (inactive)	32.3 µM (inactive)
CCCCCCCCCCSCC(CO)NC(=O)/C=C/c1c(C)[nH]c(=O)[nH]c1=O (stereo unspecified)	–	259 nM (active) and 258 nM (active)	3.93 µM (inactive) and 2.01 µM (inactive)	–	1.54 µM (inactive) and 820 nM (active)	4.02 µM (inactive) and 7.43 µM (inactive)	2.43 µM (inactive) and 2.48 µM (inactive)	1.29 µM (inactive) and 1.42 µM (inactive)	243 nM (active) and 393 nM (active)	> 50 µM (inactive) and > 42.8 µM (inactive)	1.04 µM (active) and 1.09 µM (active)	23.1 µM (inactive) and 33.5 µM (inactive)	1.36 µM (inactive) and 2.69 µM (inactive)	684 nM (active) and 723 nM (active)	–	1.61 µM (inactive) and 1.51 µM (inactive)	–	–	–	–
Nc1ccc(/N=N/c2ccc(/C=C/c3ccc(/N=N/c4ccc(N)c5ccc(S(=O)(=O)O)cc45)cc3S(=O)(=O)O)c(S(=O)(=O)O)c2)c2cc(S(=O)(=O)O)ccc12	> 100 µM (inactive)	> 100 µM (inactive)	> 100 µM (inactive)	> 100	88.1 µM (inactive)	> 100 µM (inactive)	> 100 µM (inactive)	> 100 µM (inactive)	> 100 µM (inactive)	> 100 µM (inactive)	> 100 µM (inactive)	> 100 µM (inactive)	> 100 µM (inactive)	> 100 µM (inactive)	> 100 µM (inactive)	> 100 µM (inactive)	> 100 µM (inactive)	–	–	–
CCNC(=O)Nc1cccc(NC(=O)NCC)n1	60.1 µM (inactive)	> 100 µM (inactive)	35.8 µM (inactive)	–	50.4 µM (inactive)	76.4 µM (inactive)	> 100 µM (inactive)	–	> 100 µM (inactive)	–	> 100 µM (inactive)	–	> 100 µM (inactive)	> 100 µM (inactive)	> 100 µM (inactive)	> 100 µM (inactive)	> 100 µM (inactive)	> 100 µM (inactive)	> 100 µM (inactive)	> 100 µM (inactive)
CN(C)CC(CC1=C(CC(CN(C)C)N(C)C)CCC1)N(C)C (stereo unspecified)	> 100 µM (inactive)	> 100 µM (inactive)	> 100 µM (inactive)	> 100	> 100 µM (inactive)	> 100 µM (inactive)	> 100 µM (inactive)	> 100 µM (inactive)	> 100 µM (inactive)	> 100 µM (inactive)	> 100 µM (inactive)	> 100 µM (inactive)	> 100 µM (inactive)	> 100 µM (inactive)	> 100 µM (inactive)	> 100 µM (inactive)	> 100 µM (inactive)	–	–	–
C=C1C(=O)OCC2C(C(=O)O)=CC3C(C)C(C)=CC123 (stereo unspecified)	7.8 µM (inactive)	7.74 µM (inactive)	21.7 µM (inactive)	11	10.6 µM (inactive)	11.1 µM (inactive)	11.9 µM (inactive)	8.13 µM (inactive)	2.31 µM (inactive)	8.26 µM (inactive)	9.59 µM (inactive)	7.23 µM (inactive)	7.4 µM (inactive)	9.46 µM (inactive)	16.4 µM (inactive)	9.31 µM (inactive)	8.36 µM (inactive)	–	–	–
CCCCCCCC/C=C\CCCCCCCC(=O)O [OLEIC ACID]	> 431 µM (inactive)	99.8 µM (inactive)	124 µM (inactive)	177	> 5 µM (inactive)	> 500 µM (inactive)	178 µM (inactive)	116 µM (inactive)	101 µM (inactive)	102 µM (inactive)	99.1 µM (inactive)	91.6 µM (inactive)	92.7 µM (inactive)	101 µM (inactive)	> 500 µM (inactive)	140 µM (inactive)	87.7 µM (inactive)	–	–	–
c1ccc(Nc2nnc(-c3ccccc3Nc3ccccc3-c3nnc(Nc4ccccc4)s3)s2)cc1	–	> 100 µM (inactive)	> 100 µM (inactive)	> 100	0.703 µM (active)	> 100 µM (inactive)	7.14 µM (inactive)	> 100 µM (inactive)	> 100 µM (inactive)	> 100 µM (inactive)	> 100 µM (inactive)	–	> 100 µM (inactive)	> 100 µM (inactive)	–	> 100 µM (inactive)	> 100 µM (inactive)	> 100 µM (inactive)	> 100 µM (inactive)	> 100 µM (inactive)
Cc1ccc(/N=N/c2c(O)ccc3cc(S(=O)(=O)O)ccc23)cc1	–	> 100 µM (inactive)	29.6 µM (inactive)	> 100	> 100 µM (inactive)	> 100 µM (inactive)	64.3 µM (inactive)	18.2 µM (inactive)	> 100 µM (inactive)	> 100 µM (inactive)	> 100 µM (inactive)	> 100 µM (inactive)	> 100 µM (inactive)	85.5 µM (inactive)	> 100 µM (inactive)	> 100 µM (inactive)	> 100 µM (inactive)	> 100 µM (inactive)	> 100 µM (inactive)	> 100 µM (inactive)
